In patent US5001158A, “Nitrosoureas compounds preparation thereof and utilization thereof in anticancerous” (Centre National de la Recherche Scientifique, priority 1990, dated 1991):
Like-named read-outs stand apart in the source and are kept apart here.

Columns and labels:
Ovarian M 555 = system: Ovarian M 555; set-up: key: N.S.: Not significant; .infin.: 50% more of the treated animals are cure; conditions: days 1, 5 and 9, cited from earlier work
Melanocarcinoma B 16 = system: Melanocarcinoma B 16; set-up: key: N.S.: Not significant; .infin.: 50% more of the treated animals are cure; conditions: days 1, 5 and 9, cited from earlier work
Fibrosarcoma I.C.I.G. C1 = system: Fibrosarcoma I.C.I.G. C1; set-up: key: N.S.: Not significant; .infin.: 50% more of the treated animals are cure; conditions: days 1, 5 and 9, cited from earlier work
Glioma 26 = system: Glioma 26; set-up: key: N.S.: Not significant; .infin.: 50% more of the treated animals are cure; conditions: days 1, 5 and 9, cited from earlier work
[1] = system: Carcinoma of the colon (colon 26); set-up: key: N.S.: Not significant; .infin.: 50% more of the treated animals are cure; conditions: days 1, 5 and 9, cited from earlier work
Leukemia L 1210 [2] = system: Leukemia L 1210; set-up: key: N.S.: Not significant; .infin.: 50% more of the treated animals are cure; conditions: days 1, 5 and 9, cited from earlier work
[3] = system: Lewis pulmonary carcinoma; set-up: key: N.S.: Not significant; .infin.: 50% more of the treated animals are cure; conditions: days 1, 5 and 9, cited from earlier work
[4] = system: Mammary adenocarcinoma TM2; set-up: key: N.S.: Not significant; .infin.: 50% more of the treated animals are cure; conditions: days 1, 5 and 9, cited from earlier work
[5] = system: types of tumor listed in Table I; conditions: cited from earlier work
leukemia L 1210 [6] = experiment: Antitumoral activity on leukemia L 1210 grafted i.p. in mice, sulfoxide and sulfone mixtures (Unit 71 of INSERM); format: in vivo, mice (B6 D2 F1 /IFFA CREDO); conditions: D1, D5, D9
Experimental: This activity was also studied on mice carrying leukemia L 1210 grafted i.p. This experimental tumor is the one most frequently used in the primary screening of cytostatic drugs.
These tests were conducted in parallel in two laboratories: at Unit 71 of the Institut National de la Sante et de la Recberche Mediecale (INSERM), ClermontFerrand, and at the Institut de Cancerologie et d' Immunogenetique (ICIG), Villejuif.
The antitumoral efficacy of the products according to the invention was compared with that of CNCC.
On day D:0, three-month-old male B6 D2 F1 mice received 10^5 cells of the leukemia strain L 1210 by intraperitoneal administration. The animals are divided up into groups of 8 to 10 animals for the control groups and 6 to 8 animals for the treated groups. On days D:1, D:5 and D:9, the animals receive the treatment at different doses by intraperitoneal or intravenous administration. The CNCC is administered as a suspension in olive oil. The products according to the invention are administered in physiological serum. The mortality is recorded every day. The survival median was determined for the treated animals and the control animals. The results are considered to be positive if the index I= [formula] is greater than 125.
The value .infin. means that 50% to 100% of the animals have survived to day D:90.
The cytostatic activity oi the products according to the invention on leukemia L 1210 was evaluated on B6 D2 F1 /IFFA CREDO mice according to the protocol described previously.
The following were administered intraperitoneally (i.p.): the mixture A1 A2 in the following proportions: A1 (70%) and A2 (30%), or the mixture B1 B2 in the same proportions, or CNCC at the following doses: 10 mg/kg, 20 mg/kg, 30 mg/kg, 40 mg/kg and 50 mg/kg. The results are given in Table II and invite the following remarks: […]

[7] = Solubility in solvents allowing intravenous administration; format: physicochemical; conditions: solvents which allow intravenous administration

## O=NN(CCCl)C(=O)N[C@H]1C(O)O[C@H](CO)[C@@H](O)[C@@H]1O (stereo partly shown) [CHLOROZOTOCIN, chlorozotocin]
Ovarian M 555; 15 mg/kg i.p.
  Increase in the survival time (I.L.S.: T/C × 100): .infin. (50% more of the treated animals are cure)
Melanocarcinoma B 16; 15 mg/kg i.p.
  Increase in the survival time (I.L.S.: T/C × 100): N.S.
Fibrosarcoma I.C.I.G. C1; 15 mg/kg i.p.
  Increase in the survival time (I.L.S.: T/C × 100): .infin. (50% more of the treated animals are cure)
Glioma 26; 15 mg/kg i.p.
  Increase in the survival time (I.L.S.: T/C × 100): N.S.
[1]; 15 mg/kg i.p.
  Increase in the survival time (I.L.S.: T/C × 100): .infin. (50% more of the treated animals are cure)
Leukemia L 1210 [2]; 15 mg/kg i.p.
  Increase in the survival time (I.L.S.: T/C × 100): N.S.
[3]; 15 mg/kg i.p.
  Increase in the survival time (I.L.S.: T/C × 100): N.S.
[4]; 15 mg/kg i.p.
  Increase in the survival time (I.L.S.: T/C × 100): N.S.

## O=NN(CCCl)C(=O)NCCSSCCN(N=O)C(=O)NCCCl [CNCC, N[N-(2-chloroethyl) N-nitrosocarbamoyl]-N'-[N(2-chloroethyl)carbamoyl] N'-nitrosocystamine]
Ovarian M 555; 30 mg/kg i.p.
  Increase in the survival time (I.L.S.: T/C × 100): > 254
Melanocarcinoma B 16; 30 mg/kg i.p.
  Increase in the survival time (I.L.S.: T/C × 100): 200
[5]
  activity against types of tumor (in words): active against all the types of tumor listed in Table I, with the exception of fibrosarcoma I.C.I.G
  activity compared with the other chloroethylnitrosoureas (in words): quantitatively greater than those observed with the other chloroethylnitrosoureas
Fibrosarcoma I.C.I.G. C1; 30 mg/kg i.p.
  Increase in the survival time (I.L.S.: T/C × 100): N.S.
Leukemia L 1210 [6]; 10 mg/kg i.p.
  T/C × 100: 250
  number of animals surviving to 90 days: 0/6
Leukemia L 1210 [6]; 20 mg/kg i.p.
  T/C × 100: .infin. (50 to 100% of the animals surviving to 90 days)
  number of animals surviving to 90 days: 6/6
Leukemia L 1210 [6]; 30 mg/kg i.p.
  T/C × 100: .infin. (50 to 100% of the animals surviving to 90 days)
  number of animals surviving to 90 days: 6/6
Leukemia L 1210 [6]; 40 mg/kg i.p.
  T/C × 100: .infin. (50 to 100% of the animals surviving to 90 days)
  number of animals surviving to 90 days: 3/6
Leukemia L 1210 [6]; 50 mg/kg i.p.
  T/C × 100: 125
  number of animals surviving to 90 days: 0/6
Glioma 26; 30 mg/kg i.p.
  Increase in the survival time (I.L.S.: T/C × 100): 200
[1]; 30 mg/kg i.p.
  Increase in the survival time (I.L.S.: T/C × 100): .infin. (50% more of the treated animals are cure)
Leukemia L 1210 [2]; 30 mg/kg i.p.
  Increase in the survival time (I.L.S.: T/C × 100): .infin. (50% more of the treated animals are cure)
[3]; 30 mg/kg i.p.
  Increase in the survival time (I.L.S.: T/C × 100): .infin. (50% more of the treated animals are cure)
[7]
  solubility (in words): insolubility of this compound in the solvents which allow intravenous administration
[4]; 30 mg/kg i.p.
  Increase in the survival time (I.L.S.: T/C × 100): 185

## O=NN(CCCl)C(=O)NCCO [H.E.C.N.U., 1-(2-hydroxyethyl)-3-(2-chloroethyl) 3-nitrosourea]
Ovarian M 555; 10 mg/kg i.p.
  Increase in the survival time (I.L.S.: T/C × 100): 210
Melanocarcinoma B 16; 10 mg/kg i.p.
  Increase in the survival time (I.L.S.: T/C × 100): 198
Fibrosarcoma I.C.I.G. C1; 10 mg/kg i.p.
  Increase in the survival time (I.L.S.: T/C × 100): N.S.
Glioma 26; 10 mg/kg i.p.
  Increase in the survival time (I.L.S.: T/C × 100): 182
[1]; 10 mg/kg i.p.
  Increase in the survival time (I.L.S.: T/C × 100): .infin. (50% more of the treated animals are cure)
Leukemia L 1210 [2]; 10 mg/kg i.p.
  Increase in the survival time (I.L.S.: T/C × 100): .infin. (50% more of the treated animals are cure)
[3]; 10 mg/kg i.p.
  Increase in the survival time (I.L.S.: T/C × 100): .infin. (50% more of the treated animals are cure)
[4]; 10 mg/kg i.p.
  Increase in the survival time (I.L.S.: T/C × 100): 165

## CC1(C)O[C@@H]2[C@@H](COC(=O)c3ccc([N+](=O)[O-])cc3)OC(NC(=O)N(CCCl)N=O)[C@@H]2O1 (stereo partly drawn) [R.F.C.N.U., 1-(2-chloroethyl)-3-[1'-(5'-pnitrobenzoyl 2', 3'-isopropylidene)alphabeta D-ribofuranosyl]-1-nitrosourea]
Ovarian M 555; 20 mg/kg i.p.
  Increase in the survival time (I.L.S.: T/C × 100): N.S.
Melanocarcinoma B 16; 20 mg/kg i.p.
  Increase in the survival time (I.L.S.: T/C × 100): 144
Fibrosarcoma I.C.I.G. C1; 20 mg/kg i.p.
  Increase in the survival time (I.L.S.: T/C × 100): .infin. (50% more of the treated animals are cure)
Glioma 26; 20 mg/kg i.p.
  Increase in the survival time (I.L.S.: T/C × 100): N.S.
[1]; 20 mg/kg i.p.
  Increase in the survival time (I.L.S.: T/C × 100): N.S.
Leukemia L 1210 [2]; 20 mg/kg i.p.
  Increase in the survival time (I.L.S.: T/C × 100): 167
[3]; 20 mg/kg i.p.
  Increase in the survival time (I.L.S.: T/C × 100): N.S.
[4]; 20 mg/kg i.p.
  Increase in the survival time (I.L.S.: T/C × 100): N.S.

## CC(=O)O[C@@H]1[C@H](OC(C)=O)COC(NC(=O)N(CCCl)N=O)[C@@H]1OC(C)=O (stereo partly drawn) [R.P.C.N.U., 1-(2-chloroethyl)-3-[(2'-3'-4° trioacetyl)alphabeta D-ribopyrannosyl]-1-nitrosourea]
Ovarian M 555; 15 mg/kg i.p.
  Increase in the survival time (I.L.S.: T/C × 100): .infin. (50% more of the treated animals are cure)
Melanocarcinoma B 16; 15 mg/kg i.p.
  Increase in the survival time (I.L.S.: T/C × 100): 151
Glioma 26; 15 mg/kg i.p.
  Increase in the survival time (I.L.S.: T/C × 100): 127
[1]; 15 mg/kg i.p.
  Increase in the survival time (I.L.S.: T/C × 100): N.S.
Leukemia L 1210 [2]; 15 mg/kg i.p.
  Increase in the survival time (I.L.S.: T/C × 100): N.S.
[3]; 15 mg/kg i.p.
  Increase in the survival time (I.L.S.: T/C × 100): N.S.
[4]; 15 mg/kg i.p.
  Increase in the survival time (I.L.S.: T/C × 100): 134
